Laboratory results: US10570179B2, “Substituted urea depsipeptide analogs as activators of the CLPP endopeptidase” (priority 2016, dated 2020)
Values after ≈ are worked out from the molar mass of the structure shown. Like-named read-outs stand apart in the source and are kept apart here. Numbered stars: 1 amine (or outer) side, 2 acyl side, 3 side chain; on linkers, the order of the positions; unused ones are H or OH. Bridge positions count the residues as written; N and C are the ends. Square brackets hold non-standard residues; d marks the D form. Peptide text beside a SMILES is read from it. * marks the point of attachment. X6 = O=C([C@@H]1CS(=O)(=O)CCN1[*:1])[*:2]; Phe(3-Me) = Cc1cccc(C[C@H](N)C(=O)O)c1; NH(4-Cl-2-F-phenyl) = Fc1cc(Cl)ccc1N*; Pro(4R-Me) = C[C@H]1CN[C@H](C(=O)O)C1; X1 = O=C([C@@H]1CSCCN1[*:1])[*:2]; Hyp = O=C(O)[C@@H]1C[C@@H](O)CN1; aThr = C[C@H](O)[C@H](N)C(=O)O; Pip = O=C(O)[C@@H]1CCCCN1; 4Abz = Nc1ccc(C(=O)O)cc1; CO = O=C([*:1])[*:2]

Tests used:
S. aureus ΔClpP = assay: Minimal inhibitory concentration, microbroth dilution; assay type: cell-based, Staphylococcus aureus; details: MIC; ClpP inactivated
Summary of the method: (§1)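 Following CLSI M7-A7 microbroth dilution, twofold serial dilutions of compound (top final concentration 200 μM) were combined with an equal volume of broth inoculum at about 10^5 cfu/mL. Plates were incubated aerobically at 37 °C overnight, and the MIC was the lowest concentration preventing visible growth.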

MRSA NRS70 = assay: as above; assay type: cell-based; details: Staphylococcus aureus
Summary of the method: as §1

S. aureus ATCC 29213 = assay: as above; assay type: cell-based; details: Staphylococcus aureus
Summary of the method: as §1

E. faecails = assay: as above; assay type: cell-based; details: Enterococcus faecalis
Summary of the method: as §1

S. aureus USA 300 = assay: as above; assay type: cell-based; details: Staphylococcus aureus
Summary of the method: as §1

Plasma stability assay [1] = assay type: in vitro ADME, mouse
Description: (§2) The plasma stability property of early drug discovery compounds can influence the in vivo efficacy of the test compounds/drugs. Human and/or mouse plasma degradation is determined using multiple time points to monitor the rate of disappearance of the parent compound during incubation.
(§3) Sample preparation for plasma stability was modified from Di et al. (2005) Int. J. Pharm. 297(1-2): 110-119. A set of incubation times of 0, 3, 24, and 48 hour were used. DMSO stock solutions of test compounds were prepared at 10 mM concentration. 1.8 μL of each test compound was each added directly to 1.8 mL of human/mouse plasma to get the final concentration of 10 μM. This compound/matrix was mixed and 70 μL was transferred to 8 time points plates (each in triplicate wells). For the Time 0 plate, 210 μL of cold acetonitrile with internal standard (4 μg/mL warfarin) was added to each well and no incubation needed. For other seven time points' plate, the plate was incubated at 37° C. for required time, followed by quenching of the reaction by adding 210 μL of cold acetonitrile with internal standard (4 μg/ml warfarin) to each well. All of the plates were sealed and mixed well at 600 rpm for 10 min and were centrifuged at 4000 rpm for 20 min. The supernatants (120 μL) were transferred to analytical plates for analysis by LCMS. Conditions for Waters ACQUITY-UPLC-MS-UV system was described separately. The plasma stability was evaluated via the half-life from least-squares fit of the multiple time points based on first-order kinetics.

Plasma stability assay [2] = assay type: in vitro ADME, human
Description: as §2, §3

[3] = plasma stability half-life, mouse plasma, 37° C.
[4] = plasma stability half-life, human plasma, 37° C.
[5] = MIC, read-out: Minimal Inhibitory Concentrations (μM) MRSA NRS70
[6] = ATCC29213, MIC, read-out: Minimal Inhibitory Concentrations (μM) S. aureus ATCC 29213
[7] = MIC, read-out: Minimal Inhibitory Concentrations (μM) E. faecails
[8] = USA300, MIC, read-out: Minimal Inhibitory Concentrations (μM) S. aureus USA 300

Row | SMILES | Minimal Inhibitory Concentrations (μM) S. aureus ΔClpP (S. aureus ΔClpP) [µM] | MIC (MRSA NRS70; read-out: Minimal Inhibitory Concentrations (μM) MRSA NRS70, MIC) [µM] | MIC (S. aureus ATCC 29213; ATCC29213, read-out: Minimal Inhibitory Concentrations (μM) S. aureus ATCC 29213, MIC) [µM] | MIC (E. faecails; read-out: Minimal Inhibitory Concentrations (μM) E. faecails, MIC) [µM] | MIC (S. aureus USA 300; USA300, read-out: Minimal Inhibitory Concentrations (μM) S. aureus USA 300, MIC) [µM] | Mouse (Plasma stability assay [1]; [3]) [h] | Human (Plasma stability assay [2]; [4]) [h] | MIC (MRSA NRS70; [5]) [µM] | MIC (S. aureus ATCC 29213; [6]) [µM] | MIC (E. faecails; [7]) [µM] | MIC (S. aureus USA 300; [8]) [µM] | Mouse (Plasma stability assay [1]; mouse, 10 μM) [h] | Human (Plasma stability assay [2]; human, 10 μM) [h]
1 | CCOC(=O)c1ccc(NC(=O)N[C@@H](Cc2cccc(C)c2)C(=O)N[C@@H]2C(=O)N3C[C@H](O)C[C@H]3C(=O)N3CCCC[C@H]3C(=O)N[C@@H](C)C(=O)N3C[C@H](C)C[C@H]3C(=O)O[C@H]2C)cc1 [Compound 36, ETHYL 4-(3-((S)-1-(((2R,6S,8AS,14AS,16R,20S,21S,23AS)-16-HYDROXY-2,6,21-TRIMETHYL-5,8,14,19,23-PENTAOXOOCTADECAHYDRO-1H,5H,14H,19H-PYRIDO[2,1-I]DIPYRROLO[2,1-C:2′,1′-L][1]OXA[4,7,10,13]TETRAAZACYCLOHEXADECIN-20-YL)AMINO)-1-OXO-3-(M-TOLYL)PROPAN-2-YL)UREIDO)BENZOATE] ({OEt-4Abz-CO}-[Phe(3-Me)][aThr][Hyp][Pip]A[Pro(4R-Me)]; ester 2-C) | >20 | 2.5 (≈ 2.15 µg/mL) | 1.25 (≈ 1.07 µg/mL) | 1.25 (≈ 1.07 µg/mL) | 2.5 (≈ 2.15 µg/mL) | 0.30 | 57.50 |  |  |  |  |  | 
2 | Cc1cccc(C[C@H](NC(=O)Nc2ccc(Cl)cc2F)C(=O)N[C@@H]2C(=O)N3CCC[C@H]3C(=O)N3CCSC[C@H]3C(=O)N[C@@H](C)C(=O)N3C[C@H](C)C[C@H]3C(=O)O[C@H]2C)c1 [Compound 38, (S)-2-(3-(4-CHLORO-2-FLUOROPHENYL)UREIDO)-3-(M-TOLYL)-N-((6AS,12S,13S,15AS,17R,21S,23AR)-13,17,21-TRIMETHYL-6,11,15,20,23-PENTAOXOOCTADECAHYDRO-6H,11H,15H-DIPYRROLO[2,1-C:2′,1′-L][1,4]THIAZINO[3,4-I][1]OXA[4,7,10,13]TETRAAZACYCLOHEXADECIN-12-YL)PROPANAMIDE] ({NH(4-Cl-2-F-phenyl)-CO}-[Phe(3-Me)][aThr]P[X1]A[Pro(4R-Me)]; ester 2-C) | >20 |  |  |  |  |  |  | 0.039 (≈ 0.0329 µg/mL) | 0.039 (≈ 0.0329 µg/mL) | 0.078 (≈ 0.0657 µg/mL) | 0.078 (≈ 0.0657 µg/mL) | >50 | >50
3 | Cc1cccc(C[C@H](NC(=O)Nc2ccc(Cl)cc2F)C(=O)N[C@@H]2C(=O)N3CCC[C@H]3C(=O)N3CCS(=O)(=O)C[C@H]3C(=O)N[C@@H](C)C(=O)N3C[C@H](C)C[C@H]3C(=O)O[C@H]2C)c1 [Compound 40, (S)-2-(3-(4-CHLORO-2-FLUOROPHENYL)UREIDO)-3-(M-TOLYL)-N-((6AS,12S,13S,15AS,17R,21S,23AR)-13,17,21-TRIMETHYL-2,2-DIOXIDO-6,11,15,20,23-PENTAOXOOCTADECAHYDRO-6H,11H,15H-DIPYRROLO[2,1-C:2′,1′-L][1,4]THIAZINO[3,4-I][1]OXA[4,7,10,13]TETRAAZACYCLOHEXADECIN-12-YL)PROPANAMIDE] ({NH(4-Cl-2-F-phenyl)-CO}-[Phe(3-Me)][aThr]P[X6]A[Pro(4R-Me)]; ester 2-C) | >20 |  |  |  |  |  |  | 0.625 (≈ 0.546 µg/mL) | 1.25 (≈ 1.09 µg/mL) | 0.625 (≈ 0.546 µg/mL) | 1.25 (≈ 1.09 µg/mL) | >50 | >50
4 | Cc1cccc(C[C@H](NC(=O)Nc2ccc(Cl)cc2F)C(=O)N[C@@H]2C(=O)N3C[C@H](O)C[C@H]3C(=O)N3CCSC[C@H]3C(=O)N[C@@H](C)C(=O)N3C[C@H](C)C[C@H]3C(=O)O[C@H]2C)c1 [Compound 41, (S)-2-(3-(4-CHLORO-2-FLUOROPHENYL)UREIDO)-N-((6AS,8R,12S,13S,15AS,17R,21S,23AR)-8-HYDROXY-13,17,21-TRIMETHYL-6,11,15,20,23-PENTAOXOOCTADECAHYDRO-6H,11H,15H-DIPYRROLO[2,1-C:2′,1′-L][1,4]THIAZINO[3,4-I][1]OXA[4,7,10,13]TETRAAZACYCLOHEXADECIN-12-YL)-3-(M-TOLYL)PROPANAMIDE] ({NH(4-Cl-2-F-phenyl)-CO}-[Phe(3-Me)][aThr][Hyp][X1]A[Pro(4R-Me)]; ester 2-C) | >20 |  |  |  |  |  |  | 0.156 (≈ 0.134 µg/mL) | 0.31 (≈ 0.266 µg/mL) | 0.625 (≈ 0.536 µg/mL) | 0.31 (≈ 0.266 µg/mL) | >50 | >50
5 | Cc1ccc(NC(=O)N[C@@H](Cc2cccc(C)c2)C(=O)N[C@H]2COC(=O)[C@@H]3CCCN3C(=O)[C@H](C)NC(=O)[C@@H]3CCCCN3C(=O)[C@@H]3C[C@@H](O)CN3C2=O)cc1 [Compound 49, (S)—N-((6S,8AS,14AS,16R,20S,23AS)-16-HYDROXY-6-METHYL-5,8,14,19,23-PENTAOXOOCTADECAHYDRO-1H,5H,14H,19H-PYRIDO[2,1-I]DIPYRROLO[2,1-C:2′,1′-L][1]OXA[4,7,10,13]TETRAAZACYCLOHEXADECIN-20-YL)-3-(M-TOLYL)-2-(3-(P-TOLYL)UREIDO)PROPANAMIDE] | >20 |  |  |  |  | 22.75 | 29.79 |  |  |  |  |  | 
